In patent US20230111310A1, “CARBOXYLIC ACID DERIVATIVE-SUBSTITUTED IMINO ARYL COMPOUND, PREPARATION METHOD THEREFOR, HERBICIDAL COMPOSITION AND USE THEREOF” (Qingdao Kingagroot Chemical Compound Co., Ltd., priority 2020, published 2023):

Columns and labels:
Assay in all cases: Weeding effect in post-emergence stage
Type in all cases: in vivo
Abutilon theophrasti = settings: for Weeding effect in post-emergence stage, Abutilon theophrasti: level of fresh weight growth control rate; for Weeding effect in post-emergence stage, Abutilon theophrasti (level): fresh weight control rate level
Procedure, shortened: (§1)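 Compound, dissolved in acetone and diluted in water with Tween 80 plus methyl oleate EC (1.5 liter/ha), is sprayed onto 2-3 leaf potted plants. Rates span 7.5–500 g/ha. After 3 weeks of greenhouse culture, weeding effect is counted as the mean of triplicates.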

Alopecurus japonicus = settings: for Weeding effect in post-emergence stage, Alopecurus japonicus: level of fresh weight growth control rate; for Weeding effect in post-emergence stage, Alopecurus japonicus (level): fresh weight control rate level
Procedure, shortened: as §1

Setaria viridis = settings: for Weeding effect in post-emergence stage, Setaria viridis: level of fresh weight growth control rate; for Weeding effect in post-emergence stage, Setaria viridis (level): fresh weight control rate level
Procedure, shortened: as §1

Eleusine indica = settings: for Weeding effect in post-emergence stage, Eleusine indica: level of fresh weight growth control rate; for Weeding effect in post-emergence stage, Eleusine indica (level): fresh weight control rate level
Procedure, shortened: as §1

Digitaria sanguinalis = settings: for Weeding effect in post-emergence stage, Digitaria sanguinalis: level of fresh weight growth control rate; for Weeding effect in post-emergence stage, Digitaria sanguinalis (level): fresh weight control rate level
Procedure, shortened: as §1

Echinochloa crusgalli = settings: for Weeding effect in post-emergence stage, Echinochloa crusgalli: level of fresh weight growth control rate; for Weeding effect in post-emergence stage, Echinochloa crusgalli (level): fresh weight control rate level
Procedure, shortened: as §1

| Structure (SMILES) | Weeding effect in post-emergence stage, Abutilon theophrasti (Abutilon theophrasti; Dose 15 g/ha) | Weeding effect in post-emergence stage, Alopecurus japonicus (Alopecurus japonicus; Dose 15 g/ha) | Weeding effect in post-emergence stage, Setaria viridis (Setaria viridis; Dose 15 g/ha) | Weeding effect in post-emergence stage, Eleusine indica (Eleusine indica; Dose 15 g/ha) | Weeding effect in post-emergence stage, Digitaria sanguinalis (Digitaria sanguinalis; Dose 15 g/ha) | Weeding effect in post-emergence stage, Echinochloa crusgalli (Echinochloa crusgalli; Dose 15 g/ha) | further results |
| --- | --- | --- | --- | --- | --- | --- | --- |
| CCOC(=O)C(C)O/N=C/c1cc(-n2c(=O)n(C)c(=S)n(C)c2=O)c(F)cc1Br (stereo not drawn) [Compound 84] | 5 (Level 5: growth control rate is above 85%) | 4 (Level 4: growth control rate is greater than or equal to 60% and less than 85%) | 5 (Level 5: growth control rate is above 85%) | 5 (Level 5: growth control rate is above 85%) | 4 (Level 4: growth control rate is greater than or equal to 60% and less than 85%) | 5 (Level 5: growth control rate is above 85%) |  |
| COC(=O)C(C)O/N=C/c1cc(-n2c(=S)cc(C(F)(F)F)n(C)c2=S)c(F)cc1C#N (racemic) [Compound 390] |  |  |  |  |  |  | Weeding effect in post-emergence stage, Abutilon theophrasti (level) (Abutilon theophrasti; Dose 15 g/ha): 5 (Level 5: growth control rate is above 85%); Weeding effect in post-emergence stage, Alopecurus japonicus (level) (Alopecurus japonicus; Dose 15 g/ha): 5 (Level 5: growth control rate is above 85%); Weeding effect in post-emergence stage, Setaria viridis (level) (Setaria viridis; Dose 15 g/ha): 5 (Level 5: growth control rate is above 85%); Weeding effect in post-emergence stage, Eleusine indica (level) (Eleusine indica; Dose 15 g/ha): 5 (Level 5: growth control rate is above 85%); Weeding effect in post-emergence stage, Digitaria sanguinalis (level) (Digitaria sanguinalis; Dose 15 g/ha): 5 (Level 5: growth control rate is above 85%); Weeding effect in post-emergence stage, Echinochloa crusgalli (level) (Echinochloa crusgalli; Dose 15 g/ha): 5 (Level 5: growth control rate is above 85%) |
| COC(=O)[C@H](O/N=C/c1cc(-n2c(=O)cc(C(F)(F)F)n(C)c2=O)c(F)cc1Cl)C1CC1 [456(R)] |  |  |  |  |  |  | Weeding effect in post-emergence stage, Abutilon theophrasti (level) (Abutilon theophrasti; Dose 30 g/ha): 5 (Level 5: growth control rate is above 85%); Weeding effect in post-emergence stage, Alopecurus japonicus (level) (Alopecurus japonicus; Dose 30 g/ha): 5 (Level 5: growth control rate is above 85%); Weeding effect in post-emergence stage, Setaria viridis (level) (Setaria viridis; Dose 30 g/ha): 5 (Level 5: growth control rate is above 85%); Weeding effect in post-emergence stage, Eleusine indica (level) (Eleusine indica; Dose 30 g/ha): 5 (Level 5: growth control rate is above 85%); Weeding effect in post-emergence stage, Digitaria sanguinalis (level) (Digitaria sanguinalis; Dose 30 g/ha): 5 (Level 5: growth control rate is above 85%); Weeding effect in post-emergence stage, Echinochloa crusgalli (level) (Echinochloa crusgalli; Dose 30 g/ha): 5 (Level 5: growth control rate is above 85%) |
| CC(CC#N)OC(=O)[C@@H](C)O/N=C/c1cc(-n2c(=O)cc(C(F)(F)F)n(C)c2=O)c(F)cc1Cl (stereo partly drawn) [444(R)] |  |  |  |  |  |  | Weeding effect in post-emergence stage, Abutilon theophrasti (level) (Abutilon theophrasti; Dose 15 g/ha): 5 (Level 5: growth control rate is above 85%); Weeding effect in post-emergence stage, Alopecurus japonicus (level) (Alopecurus japonicus; Dose 15 g/ha): 5 (Level 5: growth control rate is above 85%); Weeding effect in post-emergence stage, Setaria viridis (level) (Setaria viridis; Dose 15 g/ha): 5 (Level 5: growth control rate is above 85%); Weeding effect in post-emergence stage, Eleusine indica (level) (Eleusine indica; Dose 15 g/ha): 5 (Level 5: growth control rate is above 85%); Weeding effect in post-emergence stage, Digitaria sanguinalis (level) (Digitaria sanguinalis; Dose 15 g/ha): 5 (Level 5: growth control rate is above 85%); Weeding effect in post-emergence stage, Echinochloa crusgalli (level) (Echinochloa crusgalli; Dose 15 g/ha): 5 (Level 5: growth control rate is above 85%) |
| C/C(=N\OC(=O)[C@@H](C)O/N=C/c1cc(-n2c(=O)cc(C(F)(F)F)n(C)c2=O)c(F)cc1Cl)C(C)C [250(R)] | 5 (Level 5: growth control rate is above 85%) | 5 (Level 5: growth control rate is above 85%) | 5 (Level 5: growth control rate is above 85%) | 5 (Level 5: growth control rate is above 85%) | 5 (Level 5: growth control rate is above 85%) | 5 (Level 5: growth control rate is above 85%) |  |
| COC(=O)[C@@H](C)O/N=C/c1cc(-n2c(=O)n(C)c(=O)n(C)c2=O)c(F)cc1Cl [164(R)] | 5 (Level 5: growth control rate is above 85%) | 5 (Level 5: growth control rate is above 85%) | 5 (Level 5: growth control rate is above 85%) | 5 (Level 5: growth control rate is above 85%) | 5 (Level 5: growth control rate is above 85%) | 5 (Level 5: growth control rate is above 85%) |  |
| CCCCCCCCOC(=O)[C@@H](C)O/N=C/c1cc(-n2c(=O)cc(C(F)(F)F)n(C)c2=O)c(F)cc1Cl [206(R)] | 5 (Level 5: growth control rate is above 85%) | 5 (Level 5: growth control rate is above 85%) | 5 (Level 5: growth control rate is above 85%) | 5 (Level 5: growth control rate is above 85%) | 5 (Level 5: growth control rate is above 85%) | 5 (Level 5: growth control rate is above 85%) |  |
| CCOC(=O)C(C)=NOC(=O)C(C)ON=Cc1cc(-n2c(=O)cc(C(F)(F)F)n(C)c2=O)c(F)cc1Cl [254(R)] | 5 (Level 5: growth control rate is above 85%) | 5 (Level 5: growth control rate is above 85%) | 5 (Level 5: growth control rate is above 85%) | 5 (Level 5: growth control rate is above 85%) | 5 (Level 5: growth control rate is above 85%) | 5 (Level 5: growth control rate is above 85%) |  |
